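The compound was tested at five concentrations on cells cultured in 96-well plates, with a 48-hour exposure period. TGI is the concentration that stops growth completely.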
Key:
Test in all cases: NCI-60 cell line screen, 48 h
NCI/ADR-RES ovarian = tested on: NCI/ADR-RES ovarian
LOX IMVI melanoma = tested on: LOX IMVI melanoma
HS 578T breast = tested on: HS 578T breast
CAKI-1 renal = tested on: CAKI-1 renal
SF-268 CNS = tested on: SF-268 CNS
A549 NSCLC = tested on: A549 NSCLC
SF-539 CNS = tested on: SF-539 CNS
SK-MEL-2 melanoma = tested on: SK-MEL-2 melanoma
TK-10 renal = tested on: TK-10 renal
SR leukemia = tested on: SR leukemia
HT29 colon = tested on: HT29 colon
EKVX NSCLC = tested on: EKVX NSCLC
KM12 colon = tested on: KM12 colon
M14 melanoma = tested on: M14 melanoma
SK-MEL-28 melanoma = tested on: SK-MEL-28 melanoma
COLO 205 colon = tested on: COLO 205 colon

| SMILES | TGI (NCI/ADR-RES ovarian) [µM] | TGI (LOX IMVI melanoma) [µM] | TGI (HS 578T breast) [µM] | TGI (CAKI-1 renal) [µM] | TGI (SF-268 CNS) [µM] | TGI (A549 NSCLC) [µM] | TGI (SF-539 CNS) [µM] | TGI (SK-MEL-2 melanoma) [µM] | TGI (TK-10 renal) [µM] | TGI (SR leukemia) [µM] | TGI (HT29 colon) [µM] | TGI (EKVX NSCLC) [µM] | TGI (KM12 colon) [µM] | TGI (M14 melanoma) [µM] | TGI (SK-MEL-28 melanoma) [µM] | TGI (COLO 205 colon) [µM] |
| --- | --- | --- | --- | --- | --- | --- | --- | --- | --- | --- | --- | --- | --- | --- | --- | --- |
| COc1ccc(NC(=O)CC(=O)N2N=C(C)C(N=Nc3ccc(S(=O)(=O)c4ccc(N=NC5C(=O)N(C(=O)CC(=O)Nc6ccc(OC)cc6)N=C5C)cc4)cc3)C2=O)cc1 (stereo not drawn) | > 100 | > 100 | > 100 | > 100 | > 100 | > 100 | > 100 | > 100 | > 100 | > 100 | > 100 | > 100 | > 100 | > 100 | > 100 | > 100 |
| CSc1nc(N)c(NC2OC(CO)C(O)C2O)c(=O)[nH]1 (stereo not drawn) | > 100 | > 100 | > 100 | > 100 | > 100 | > 100 | > 100 | > 100 | > 100 | > 100 | > 100 | > 100 | > 100 | > 100 | > 100 | > 100 |
| COc1cc(OC)c(OC)cc1/C=N/N=C(\N)NO | > 100 | > 100 | > 100 | > 100 | > 100 | > 100 | > 100 | > 100 | > 100 | > 100 | > 100 | > 100 | > 100 | > 100 | > 100 | > 100 |
| CN(C(=O)Cc1cc(Cl)c(Cl)cc1N=C=S)[C@H]1CCCC[C@@H]1N1CCCC1 | 36.9 | 13.3 | 42.4 | 29.2 | 31.4 | 30.6 | 46 | 29.2 | 23.5 | 3.49 | 18.7 | 31.7 | 29.7 | 29.6 | 7.65 | 26.8 |
| COc1nc2c(c(=O)n1C)N(C(C)=O)C1C(N2)OCC(OC(C)=O)C1OC(C)=O (stereo not drawn) | > 10 | > 10 | > 10 | > 10 | > 10 | > 10 | > 10 | > 10 | > 10 | > 10 | > 10 | > 10 | > 10 | > 10 | > 10 | > 10 |
| COC(=O)C1CCC(=O)N1CN(C(C)=O)c1ccccc1 (stereo not drawn) | > 100 | > 100 | > 100 | > 100 | > 100 | > 100 | > 100 | > 100 | > 100 | > 100 | > 100 | > 100 | > 100 | > 100 | > 100 | > 100 |
| Cc1ccc(-c2nc3ccc(Cl)cc3[nH]2)cc1 | > 100 | > 100 | > 100 | > 100 | > 100 | > 100 | > 100 | > 100 | > 100 | > 100 | > 100 | > 100 | > 100 | > 100 | > 100 | > 100 |
| CCC1C(c2cc(OC)c(OC)c(OC)c2)c2cc3c(cc2OC1N1CCCC1)OCO3 (stereo not drawn) | 7.03 | 22 | 14.1 | 9.8 | 33 | 20.2 | 5.53 | 13 | 40.3 | > 47.6 | 10.9 | 59.8 | 22 | 26.6 | 60.6 | 12.1 |
| O=c1oc2ccccc2c(Nc2ccc3c(c2)S(=O)(=O)c2ccccc2O3)c1[N+](=O)[O-] | > 100 | > 100 | > 100 | 51.3 | > 100 | > 100 | 65.2 | 46.4 | 62.6 | 72.6 | > 100 | > 100 | > 100 | > 100 | 51.9 | 47.6 |
| COc1cc(/C=C2/CCS(=O)(=O)c3ccc(C)cc3C2=O)cc(OC)c1OC | > 28.6 | 6.4 | > 35.9 | > 40.8 | > 49.2 | > 42 | 7.05 | 99.2 | > 44.5 | 7.13 | > 33.8 | 30.2 | > 41.2 | 18.9 | > 37.4 | 16.9 |
| COC(=O)[C@@H]1CN(C(=O)CCc2ccccc2)C(=O)N1C(=O)OCc1ccccc1 | > 100 | > 100 | > 100 | > 100 | > 100 | > 100 | > 100 | > 100 | > 100 | > 100 | > 100 | > 100 | > 100 | > 100 | > 100 | > 100 |
| CC1C(c2ccccc2)OP(=O)(OC(C#N)c2ccccc2)N1C (stereo not drawn) | > 100 | > 100 | > 100 | > 100 | > 100 | > 100 | > 100 | > 100 | > 100 | > 100 | > 100 | > 100 | > 100 | > 100 | > 100 | > 100 |
| COc1ccccc1NC(=O)/C(Cc1nc2ccc([N+](=O)[O-])cc2[nH]c1=O)=N\NC(=O)C[N+](C)(C)C | > 100 | > 100 | > 100 | > 100 | > 100 | > 100 | > 100 | > 100 | > 100 | 6.47 | > 100 | > 100 | > 100 | > 100 | > 100 | > 100 |

From PubChem BioAssay (NCI)
